From article PMC10914731, “Homo-BacPROTAC-induced degradation of ClpC1 as a strategy against drug-resistant mycobacteria” (Nature Communications, 2024)
≈ marks a conversion by molar mass, not a printed value. Where “and” joins values, the source holds several entries; their conditions need not be identical. Equal values may be shown once. Read-outs that look alike come from different tables or passages of the source. Where a SMILES comes first, the peptide text is derived from it. [ ]: non-standard residue; d: D form. Trp(1-(1,1-Me2-allyl)) = C=CC(C)(C)n1cc(C[C@H](N)C(=O)O)c2ccccc21; Ala(3R-Me,3-isobutenyl) = CC(C)=C[C@@H](C)[C@H](N)C(=O)O; NMeLeu(5-OH,4R) = CN[C@@H](C[C@@H](C)CO)C(=O)O; Phe(βR-OMe) = CO[C@H](c1ccccc1)[C@H](N)C(=O)O; NMeL = CN[C@@H](CC(C)C)C(=O)O

How the values were obtained:
[1] = target: ClpC1 NTD protein (M. tuberculosis) (Mycobacterium tuberculosis, UniProt P9WPC9); assay: biochemical; assay type: binding
Sequence of ClpC1 NTD protein (M. tuberculosis) (P9WPC9 1-156, looked up, natural form): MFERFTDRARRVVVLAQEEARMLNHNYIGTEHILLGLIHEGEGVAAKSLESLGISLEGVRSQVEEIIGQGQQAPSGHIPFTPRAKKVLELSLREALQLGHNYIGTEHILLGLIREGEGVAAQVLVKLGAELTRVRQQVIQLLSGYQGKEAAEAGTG

[2] = Microsomal stability, human; assay type: in vitro ADME; conditions: for Microsomal Stability Human: clearance in microsomes
Procedure, shortened: (§1)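 Metabolic depletion in liver microsomes (0.5 mg/ml, 1 mM NADPH, 37 °C) starting from 1 µmol/l test compound, sampled at multiple times with acetonitrile quench. LC-MS/MS quantitation; half-life converted to %Qh.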

[3] = tested on: Mtb H37Rv in THP-1 macrophages; assay: Intracellular MIC assay in THP-1 macrophages; assay type: cell-based, Mycobacterium tuberculosis; parameters: Emax: unit not given here
[4] = assay type: in vitro ADME, Mice; conditions: for Microsomal Stability Mice: clearance in microsomes
Procedure, shortened: as §1

[5] = tested on: M. tuberculosis H37Rv (ATCC 27294); assay: microbe, parasite or virus in culture; assay type: cell-based
Msm 607 = assay: microbe, parasite or virus in culture; assay type: cell-based; conditions: for Msm 607 MIC: single determinations
[6] = assay type: in vitro ADME, Rat; conditions: for Microsomal Stability Rat: clearance in microsomes
Procedure, shortened: as §1

[7] = target: ClpC1-NTD substrate, M. tuberculosis ClpC1P1P2 (Mycobacterium tuberculosis, UniProt P9WPC9); assay: biochemical; assay type: biochemical; conditions: Mtb
Sequence of ClpC1-NTD substrate, M. tuberculosis ClpC1P1P2 (P9WPC5 whole entry): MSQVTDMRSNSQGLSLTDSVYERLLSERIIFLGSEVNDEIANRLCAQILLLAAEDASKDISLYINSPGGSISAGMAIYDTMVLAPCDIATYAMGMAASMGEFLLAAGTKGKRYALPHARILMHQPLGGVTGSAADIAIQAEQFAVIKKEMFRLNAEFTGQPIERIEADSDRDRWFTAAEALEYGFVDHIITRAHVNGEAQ
Sequence of ClpC1-NTD substrate, M. tuberculosis ClpC1P1P2 (P9WPC9 whole entry): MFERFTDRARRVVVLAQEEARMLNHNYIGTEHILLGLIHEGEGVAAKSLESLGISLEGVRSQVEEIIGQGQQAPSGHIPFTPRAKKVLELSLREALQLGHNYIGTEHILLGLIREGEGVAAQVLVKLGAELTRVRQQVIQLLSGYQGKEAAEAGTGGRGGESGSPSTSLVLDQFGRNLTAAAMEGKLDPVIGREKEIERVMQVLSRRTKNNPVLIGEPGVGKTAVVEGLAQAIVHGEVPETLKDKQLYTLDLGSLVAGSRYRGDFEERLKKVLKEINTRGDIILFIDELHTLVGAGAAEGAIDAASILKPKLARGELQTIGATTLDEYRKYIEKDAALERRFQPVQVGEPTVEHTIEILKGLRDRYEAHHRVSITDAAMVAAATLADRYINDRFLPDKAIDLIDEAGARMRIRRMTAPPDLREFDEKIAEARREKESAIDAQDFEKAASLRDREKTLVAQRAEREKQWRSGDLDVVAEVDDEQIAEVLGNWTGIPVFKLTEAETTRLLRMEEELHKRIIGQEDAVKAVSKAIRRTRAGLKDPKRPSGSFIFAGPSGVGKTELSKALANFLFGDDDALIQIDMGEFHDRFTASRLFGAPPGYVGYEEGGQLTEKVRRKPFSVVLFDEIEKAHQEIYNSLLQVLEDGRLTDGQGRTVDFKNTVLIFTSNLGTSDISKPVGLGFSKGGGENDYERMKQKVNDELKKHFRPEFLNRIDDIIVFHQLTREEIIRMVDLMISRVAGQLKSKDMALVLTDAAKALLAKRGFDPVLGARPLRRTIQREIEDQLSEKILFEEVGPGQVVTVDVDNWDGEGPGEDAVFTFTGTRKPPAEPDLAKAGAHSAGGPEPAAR
Sequence of ClpC1-NTD substrate, M. tuberculosis ClpC1P1P2 (P9WPC3 whole entry, further chain): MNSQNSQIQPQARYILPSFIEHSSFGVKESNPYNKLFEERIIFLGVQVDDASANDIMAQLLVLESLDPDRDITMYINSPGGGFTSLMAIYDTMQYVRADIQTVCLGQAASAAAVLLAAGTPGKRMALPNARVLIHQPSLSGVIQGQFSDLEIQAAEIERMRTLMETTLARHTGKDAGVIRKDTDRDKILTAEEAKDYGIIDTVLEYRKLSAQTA

[8] = Hepatocyte stability, mice; assay type: in vitro ADME; conditions: mouse, pH 7.4
Procedure, shortened: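 Cryopreserved mouse hepatocytes (about 1 million cells/mL, pH 7.4, 50% species serum) incubated with 1 µM compound, DMSO <0.05%, at 37 °C for up to 6 h, sampled at 6 time points. Parent remaining measured by HPLC-MS/MS; half-life converted via well-stirred liver model to clearance as % Qh.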

[9] = assay type: in vitro ADME, Human; conditions: human, pH 7.4
[10] = target: endogenous ClpC1 in Msm #607 cells (Mycolicibacterium smegmatis, UniProt A0R574); assay type: cell-based, M. smegmatis
Sequence of endogenous ClpC1 in Msm #607 cells (A0R574 whole entry): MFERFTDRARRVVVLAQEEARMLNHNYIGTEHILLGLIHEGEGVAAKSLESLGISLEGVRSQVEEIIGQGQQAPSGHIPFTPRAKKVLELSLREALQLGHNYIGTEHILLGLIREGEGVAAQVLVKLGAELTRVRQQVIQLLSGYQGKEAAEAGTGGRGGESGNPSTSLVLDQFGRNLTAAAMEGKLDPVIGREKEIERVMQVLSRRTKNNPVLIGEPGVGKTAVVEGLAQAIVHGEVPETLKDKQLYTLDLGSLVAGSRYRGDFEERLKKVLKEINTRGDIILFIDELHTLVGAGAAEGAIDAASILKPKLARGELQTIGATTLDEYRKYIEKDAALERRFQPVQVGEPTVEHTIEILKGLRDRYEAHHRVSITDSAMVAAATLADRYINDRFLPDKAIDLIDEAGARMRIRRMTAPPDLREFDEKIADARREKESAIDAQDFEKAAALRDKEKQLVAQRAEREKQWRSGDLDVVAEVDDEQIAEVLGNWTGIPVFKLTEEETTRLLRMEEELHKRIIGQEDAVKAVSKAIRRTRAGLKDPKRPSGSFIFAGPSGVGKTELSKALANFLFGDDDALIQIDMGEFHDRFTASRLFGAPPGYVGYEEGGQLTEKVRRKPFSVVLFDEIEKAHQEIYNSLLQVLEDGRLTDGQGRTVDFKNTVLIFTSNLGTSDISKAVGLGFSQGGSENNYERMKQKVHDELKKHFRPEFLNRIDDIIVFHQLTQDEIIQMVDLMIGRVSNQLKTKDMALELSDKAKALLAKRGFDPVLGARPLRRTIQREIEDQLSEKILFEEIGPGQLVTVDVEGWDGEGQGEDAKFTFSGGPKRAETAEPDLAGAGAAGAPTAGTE

[11] = assay type: in vitro ADME, Rat; conditions: rat, pH 7.4
in vitro = conditions: human
Procedure, shortened: (§2)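 Values are bidirectional Caco-2 apparent permeabilities, P(A−B) and P(B−A), given in 10^-6 cm s-1. The efflux ratio divides P(B−A) by P(A−B), and intrinsic permeability averages the two directions.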

Caco-2 monolayers = assay: in vitro; conditions: human, Caco-2
Procedure, shortened: as §2

[12] = target: His6-tagged ClpC1-NTD substrate, M. smegmatis ClpC1P1P2 (UniProt A0R574+P9WPC9); assay: biochemical; assay type: biochemical; conditions: for DC50: Msm; for % Response / ClpC1-NTD peak area: Figure 4a source data, well replicates
Sequence of His6-tagged ClpC1-NTD substrate, M. smegmatis ClpC1P1P2 (P9WPC9 1-156, looked up, natural form): as the sequence (P9WPC9 1-156, looked up, natural form) above
Sequence of His6-tagged ClpC1-NTD substrate, M. smegmatis ClpC1P1P2 (A0R574 whole entry): as the sequence (A0R574 whole entry) above

[13] = SPR (Supplementary Table 1), read-out: KD ClpC1-NTD Mean ± SD
[14] = SPR, single independent measurements, read-out: KD ClpC1-NTD
[15] = Mycobacterium tuberculosis, Mtb H37Rv (Supplementary Table 2), read-out: MIC Mtb
[16] = Mycobacterium tuberculosis, single determinations, read-out: Mtb MIC
[17] = single determinations, read-out: Mtb MIC
[18] = Mycolicibacterium smegmatis, 607, read-out: MIC Msm 607
[19] = Mycolicibacterium smegmatis, 607, read-out: Msm 607 MIC, single determinations
[20] = mean of the measurements, read-out: DC50, Mean

## CO[C@H](c1ccccc1)[C@@H]1NC(=O)[C@H](C)NC(=O)[C@H](C[C@@H](C)CO)N(C)C(=O)[C@H](Cc2cn(Cc3cn(CCOCCOCCOCCn4cc(Cn5cc(C[C@@H]6NC(=O)[C@H](C(C)C)NC(=O)[C@H](CC(C)C)N(C)C(=O)[C@H](C(C)C)NC(=O)[C@H]([C@H](OC)c7ccccc7)NC(=O)[C@H](C)NC(=O)[C@H](C[C@@H](C)CO)N(C)C6=O)c6ccccc65)nn4)nn3)c3ccccc23)NC(=O)[C@H](C(C)C)NC(=O)[C@H](CC(C)C)N(C)C(=O)[C@H](C(C)C)NC1=O [Compound 7]
[1]; [13]
  Kd: 0.46 ± 0.05 nM
[1]; SPR dissociation rate constant, read-out: koff ClpC1-NTD Mean ± SD
  koff: 0.001 s⁻¹
[1]; SPR, single independent measurements
  koff ClpC1-NTD: 0.001 s⁻¹ and 0.0008 s⁻¹ and 0.0006 s⁻¹
[1]; [14]
  Kd: 0.473 nM and 0.459 nM and 0.508 nM and 0.398 nM
[1]; SPR, single independent measurements, read-out: koff ClpC1-NTD
  koff: 0.001 s⁻¹
[2]
  Microsomal Stability Human QH: > 88.4% and 86.5%
  Microsomal Stability Human: 88 %Qh
[3]
  Emax: 1.22
[3]; 0.19µM, Day 4, well replicates
  intracellular viable mycobacteria: 5.34 log10 cfu/ml
[3]; 0.19µM, Day 7, well replicates
  intracellular viable mycobacteria: 5.68 log10 cfu/ml
[3]; 0.781µM, Day 4, well replicates
  intracellular viable mycobacteria: 4.98 log10 cfu/ml
[3]; 0.781µM, Day 7, well replicates
  intracellular viable mycobacteria: 4.98 log10 cfu/ml
[3]; 3.125µM, Day 4, well replicates
  intracellular viable mycobacteria: 4.75 log10 cfu/ml
[3]; 3.125µM, Day 7, well replicates
  intracellular viable mycobacteria: 4.56 log10 cfu/ml
[3]; 50µM, Day 4, well replicates
  intracellular viable mycobacteria: 4.39 log10 cfu/ml and 4.51 log10 cfu/ml
[3]; 50µM, Day 7, well replicates
  intracellular viable mycobacteria: 3.96 log10 cfu/ml
[4]
  Microsomal Stability Mouse QH: 58.9% and 48.2%
  Microsomal Stability Mice: 53 %Qh
[5]; [15]
  MIC: 0.1 µM (≈ 0.213 µg/mL)
[5]; [16]
  MIC: 0.098 µM (≈ 0.208 µg/mL)
[5]; [17]
  MIC: 0.156 µM (≈ 0.332 µg/mL)
Msm 607; [18]
  MIC: 1.4 ± 0.2 µM (≈ 2.98 µg/mL)
Msm 607; [19]
  MIC: 1.56 µM (≈ 3.32 µg/mL)
Msm 607
  Msm 607 MIC: 1.250 µM
[6]
  Microsomal Stability Rat QH: 41.7% and 36.7%
  Microsomal Stability Rat: 40 %Qh

## C=CC(C)(C)n1cc(C[C@@H]2NC(=O)[C@H]([C@H](C)C=C(C)C)NC(=O)[C@H](CC(C)C)N(C)C(=O)[C@H](C(C)C)NC(=O)[C@H]([C@H](OC)c3ccccc3)NC(=O)[C@H](C)NC(=O)[C@H](C[C@@H](C)CO)N(C)C2=O)c2ccccc21 [dCymC] (cyclo([Trp(1-(1,1-Me2-allyl))][NMeLeu(5-OH,4R)]A[Phe(βR-OMe)]V[NMeL][Ala(3R-Me,3-isobutenyl)]))
[1]; [13]
  Kd: 1.1 ± 0.4 nM
[1]; SPR, individual measurements (source data), read-out: KD ClpC1-NTD
  Kd: 2.02 nM and 1.58 nM and 1.15 nM (5×) and 0.995 nM and 1.06 nM (3×) and 1.21 nM (2×) and 1.23 nM (3×) and 0.859 nM and 1.01 nM (4×) and 1.13 nM (2×) and 1.16 nM (5×) and 0.401 nM and 0.981 nM and 0.95 nM and 1.03 nM and 0.866 nM and 1.14 nM (2×) and 1.54 nM and 0.99 nM and 1.26 nM and 1.53 nM (2×) and 1.07 nM (3×) and 1.05 nM (3×) and 1.09 nM (4×) and 1.84 nM and 1.39 nM (2×) and 1.44 nM and 1.47 nM (2×) and 0.934 nM and 1.1 nM (3×) and 0.723 nM and 2.22 nM and 0.892 nM and 0.91 nM and 1.75 nM (3×) and 0.741 nM and 0.702 nM and 1.25 nM (2×) and 0.729 nM and 0.721 nM and 1.67 nM and 1.63 nM and 1.37 nM and 1.92 nM and 1.99 nM and 1.17 nM and 1.08 nM (3×) and 0.583 nM and 1.11 nM (4×) and 0.666 nM and 0.718 nM and 0.833 nM and 0.74 nM and 0.783 nM and 0.822 nM and 0.734 nM and 0.671 nM and 1.6 nM and 1.52 nM (2×) and 1.45 nM (3×) and 1.33 nM (3×) and 1.28 nM (2×) and 1.31 nM and 0.952 nM (2×) and 0.854 nM and 1.2 nM (3×) and 0.728 nM and 0.717 nM and 1.59 nM and 1.51 nM and 0.903 nM and 0.9 nM (2×) and 0.985 nM and 1.18 nM and 0.911 nM and 0.904 nM and 1.12 nM and 0.85 nM and 0.908 nM and 1.02 nM and 3.37 nM and 0.912 nM and 0.781 nM and 0.973 nM and 0.999 nM and 0.958 nM and 0.76 nM and 0.886 nM and 0.843 nM and 1.04 nM (4×) and 1.24 nM and 0.917 nM and 0.907 nM and 0.838 nM
[1]; [14]
  Kd: 1.15 nM (5×) and 1.06 nM (3×) and 1.21 nM (2×) and 1.23 nM (3×) and 1.01 nM (4×) and 1.13 nM (2×) and 1.16 nM (5×) and 1.14 nM (2×) and 1.53 nM (2×) and 1.07 nM (3×) and 1.05 nM (3×) and 1.09 nM (4×) and 1.39 nM (2×) and 1.47 nM (2×) and 1.1 nM (3×) and 1.75 nM (3×) and 1.25 nM (2×) and 1.08 nM (3×) and 1.11 nM (4×) and 1.52 nM (2×) and 1.45 nM (3×) and 1.33 nM (3×) and 1.28 nM (2×) and 0.952 nM (2×) and 1.2 nM (3×) and 0.9 nM (2×) and 1.04 nM (4×)
[1]; SPR, read-out: ClpC1-NTD KD Mean ± SD
  Kd: 1.1 ± 0.4 nM
[2]
  Microsomal Stability Human QH: 65.700%
  Microsomal Stability Human: 66 %Qh
[7]; Measurement 1-4, read-out: DC50, single measurements
  DC50: > 100000 nM
[7]; [20]
  DC50: > 100000 nM
[4]
  Microsomal Stability Mouse QH: 56.100%
  Microsomal Stability Mice: 56 %Qh
[8]
  Hepatocyte Mice: 46 %Qh
[5]; Mycobacterium tuberculosis, M. tuberculosis H37Rv strain, read-out: MIC Mtb H37Rv Mean ± SD
  MIC: 0.4 ± 0.1 µM (≈ 0.405 µg/mL)
[5]; [15]
  MIC: 0.4 ± 0.1 µM (≈ 0.405 µg/mL)
[5]; Mycobacterium tuberculosis, individual measurements (source data), read-out: Mtb MIC
  MIC: 0.39 µM (≈ 0.394 µg/mL)
[5]; [16]
  MIC: 0.39 µM (≈ 0.394 µg/mL)
[5]; individual measurements (source data), read-out: Mtb MIC
  MIC: 0.390 µM and 0.600 µM and 0.300 µM
[5]; [17]
  MIC: 0.600 µM and 0.300 µM
[9]
  Hepatocyte Human: 36 %Qh
  Hepatocyte Stability Human QH: 38.000%
[10]; 100 µM, Figure 5c, well replicates of 3 experiments
  ClpC1 peak area: 516046 and 317875 and 398263 and 302242 and 500156 and 40170.6 and 421518 and 401814 and 368135
[10]; Msm #607, 24 h, result in words
  intracellular degradation of ClpC1: did not induce degradation of ClpC1
[11]
  Hepatocyte Rat: 55 %Qh
  Hepatocyte Stability Rat QH: 55.000%
In vitro; Caco-2
  efflux ratio: 3
In vitro; Caco-2, CACO permeability PEBA
  Papp B→A: 2.6 ×10⁻⁶ cm/s
In vitro; Caco-2, Caco-2 permeability P (A-B)
  Papp A→B: 1.3 ×10⁻⁶ cm/s
In vitro; Caco-2, Caco-2 permeability P (B-A)
  Papp B→A: 3.1 ×10⁻⁶ cm/s
Caco-2 monolayers
  Caco-2 Int. Perm: 2.2
  Influence of N-methylation on permeability: 1.6
[12]; Measurement 1-6, read-out: DC50, single measurements
  DC50: > 100000 nM
[12]; [20]
  DC50: > 100000 nM
[12]; cell-free, result in words
  degradation of the His6-tagged ClpC1-NTD substrate: did not cause any degradation
[12]; conc. 0.4 µM
  % Response: 106.994% and 100.864% and 100.549% and 126.212% and 118.079% and 125.703% and 101.139% and 105.018% and 104.304%
  ClpC1-NTD peak area: 974818 and 1343173 and 762481 and 700950 and 757234 and 818245 and 783567 and 770572 and 1135273
[12]; conc. 33.3 µM
  % Response: 107.525% and 103.829% and 103.089% and 121.205% and 120.164% and 127.4% and 120.436% and 100.085% and 97.8128%
  ClpC1-NTD peak area: 1099272 and 1301491 and 948418 and 890861 and 865884 and 830598 and 816002 and 754560 and 1171647
[12]; conc. 100.0 µM
  % Response: 99.5642% and 103.437% and 105.517% and 119.388% and 117.765% and 125.04% and 101.258% and 115.542% and 91.4636%
  ClpC1-NTD peak area: 1282982 and 1406378 and 1339163 and 984807 and 916165 and 1033433 and 896176 and 856679 and 1974349
Msm 607; [18]
  MIC: 2.8 ± 0.4 µM (≈ 2.83 µg/mL)
Msm 607; [19]
  MIC: 3.12 µM (≈ 3.16 µg/mL)
Msm 607
  Msm 607 MIC: 2.500 µM
[6]
  Microsomal Stability Rat QH: 38.300%
  Microsomal Stability Rat: 38 %Qh
